Assay results as given in patent US8772283B2, “Imidazo-oxazine compound or salt thereof” (Taiho Pharmaceutical Co., Ltd., priority 2011, dated 2014).

Tests used:
[1] = target: human AKT1 (Homo sapiens (Human), UniProt P31749); assay: AKT1 kinase activity inhibition (TR-FRET, biotinylated Crosstide substrate); type: biochemical; conditions: preincubation 120 min at 25° C.; ATP 150 μM; Crosstide 500 nM
Protocol: (§1) Preparation of AKT1 and AKT2 and measurement of in vitro inhibitory activity of the above-mentioned compounds against AKT1 and AKT2 kinase activity were carried out with reference to the method disclosed in Biochem. J. Vol. 385, pp 399-408 (2005). In the preparation of AKT1 and AKT2, human AKT1 and AKT2 to which a middle T antigen tag was added were expressed in Sf 9 insect cells, and then AKT1 and AKT2 were prepared following affinity purification and activation by PDK1. The prepared AKT1 and AKT2 were stored at −80° C. until the time of measurement of inhibitory activity of the compounds. In the measurement of inhibitory activity of the compounds, AKT1 or AKT2 and each compound of the present invention were preincubated at 25° C. for 120 minutes in a buffer solution for reaction (15 mM Tris-HCl pH 7.5, 0.01% Tween-20, 2 mM DTT). As a substrate, biotinylated Crosstide (bioton-KGSGSGRPRTSSFAEG), MgCl2, and ATP were added to final concentrations of 500 nM, 10 mM, and 150 μM, respectively, and reactions were carried out at 25° C. for 60 minutes. The reactions were stopped by adding EDTA to a final concentration of 80 mM. Then, a detection liquid in which an Eu-labeled anti-phosphorylation Crosstide antibody (PerkinElmer) and SureLight APC-SA (PerkinElmer) were contained at a final concentration of 0.5 nM and […], respectively, was added, and reactions were carried out at room temperature for 2 hours. Finally, the amount of fluorescence at the time of irradiation of excitation light having a wavelength of 337 nm was measured at dual wavelengths of 620 nm and 665 nm by PHERAstar FS (BMG LABTECH). The amount of phosphorylation was determined from the ratio of the fluorescence amounts at the dual wavelengths. The compound concentration at which phosphorylation can be inhibited by 50% was defined as […] (nM), and the results are shown in Table 4 below.

[2] = target: human AKT2 (Homo sapiens (Human), UniProt P31751); assay: AKT2 kinase activity inhibition (TR-FRET, biotinylated Crosstide substrate); type: biochemical; conditions: preincubation 120 min at 25° C.; ATP 150 μM; Crosstide 500 nM
Sequence of human AKT2 (P31751 whole entry): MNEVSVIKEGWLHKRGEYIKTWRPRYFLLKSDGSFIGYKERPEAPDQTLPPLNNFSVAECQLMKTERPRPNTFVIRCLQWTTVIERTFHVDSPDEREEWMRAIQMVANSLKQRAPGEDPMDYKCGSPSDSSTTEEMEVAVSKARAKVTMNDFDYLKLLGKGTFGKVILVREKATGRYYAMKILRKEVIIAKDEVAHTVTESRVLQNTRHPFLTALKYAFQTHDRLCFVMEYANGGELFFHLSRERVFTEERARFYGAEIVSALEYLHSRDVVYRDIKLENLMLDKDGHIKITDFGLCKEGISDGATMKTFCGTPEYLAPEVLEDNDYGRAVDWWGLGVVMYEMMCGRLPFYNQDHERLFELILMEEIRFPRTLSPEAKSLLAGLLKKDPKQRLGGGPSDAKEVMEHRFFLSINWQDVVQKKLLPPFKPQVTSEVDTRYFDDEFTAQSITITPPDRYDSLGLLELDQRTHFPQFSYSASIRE
Protocol: as §1

Sequence of human AKT1 (P31749 whole entry): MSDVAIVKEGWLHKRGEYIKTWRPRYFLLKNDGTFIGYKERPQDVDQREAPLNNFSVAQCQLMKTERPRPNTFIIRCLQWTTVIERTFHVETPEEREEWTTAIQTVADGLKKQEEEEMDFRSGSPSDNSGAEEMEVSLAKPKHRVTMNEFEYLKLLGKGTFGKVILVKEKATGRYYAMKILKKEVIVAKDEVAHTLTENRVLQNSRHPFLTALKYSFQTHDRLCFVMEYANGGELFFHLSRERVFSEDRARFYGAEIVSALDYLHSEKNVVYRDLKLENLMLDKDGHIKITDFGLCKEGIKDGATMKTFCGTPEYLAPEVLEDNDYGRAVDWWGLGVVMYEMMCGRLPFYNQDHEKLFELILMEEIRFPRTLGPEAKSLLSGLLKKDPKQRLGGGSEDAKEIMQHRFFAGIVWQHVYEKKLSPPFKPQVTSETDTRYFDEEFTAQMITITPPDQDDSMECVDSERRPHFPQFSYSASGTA

Row | Structure (SMILES) | IC50 [1] [nM] | IC50 [2] [nM]
1 | CC1(O)CC(N)(c2ccc(-c3nc4n(c3-c3ccccc3)COc3cccc(F)c3-4)cc2)C1 (stereo not drawn) [Example 2, trans-3-amino-3-(4-(10-fluoro-3-phenyl-5H-benzo[e]imidazo[1,2-c][1,3]oxazin-2-yl)phenyl)-1-methylcyclobutanol] | 4.6 | 0.5
2 | NC1(c2ccc(-c3nc4n(c3-c3ccccc3)COc3cccc(F)c3-4)cc2)CCC1 [Example 3, 1-(4-(10-fluoro-3-phenyl-5H-benzo[e]imidazo[1,2-c][1, 3]oxazin-2-yl)phenyl)cyclobutanamine] | 16 | 1.2
3 | NC1(c2ccc(-c3nc4n(c3-c3ccsc3)COc3cccc(F)c3-4)cc2)CC(O)(C2CC2)C1 (stereo not drawn) [Example 4, trans-3-amino-1-cyclopropyl-3-(4-(10-fluoro-3-(thiophen-3-yl)-5H-benzo[e]imidazo[1,2-c][1,3]oxazin-2-yl)phenyl)cyclobutanol] | 7.1 | 0.71
4 | CC1(O)CC(N)(c2ccc(-c3nc4n(c3-c3ccsc3)COc3cccc(F)c3-4)cc2)C1 (stereo not drawn) [Example 6, trans-3-amino-3-(4-(10-fluoro-3-(thiophen-3-yl)-5H-benzo[e]imidazo[1,2-c][1,3]oxazin-2-yl)phenyl)-1-methylcyclobutanol] | 9.8 | 0.91
5 | CC1(O)CC(N)(c2ccc(-c3nc4n(c3-c3ccncc3)COc3cccc(F)c3-4)cc2)C1 (stereo not drawn) [Example 7, trans-3-amino-3-(4-(10-fluoro-3-(pyridin-4-yl)-5H-benzo[e]imidazo[1,2-c][1,3]oxazin-2-yl)phenyl)-1-methylcyclobutanol] | 25 | 1.1
6 | CC1(O)CC(N)(c2ccc(-c3nc4n(c3-c3ccccc3)COc3ccc(F)cc3-4)cc2)C1 (stereo not drawn) [Example 8, trans-3-amino-3-(4-(9-fluoro-3-phenyl-5H-benzo[e]imidazo[1,2-c][1,3]oxazin-2-yl)phenyl)-1-methylcyclobutanol] | 6.4 | 1
7 | C[C@]1(O)C[C@@](N)(c2ccc(-c3nc4n(c3-c3ccccc3)COc3cc(F)ccc3-4)cc2)C1 [Example 9, trans-3-amino-3-(4-(8-fluoro-3-phenyl-5H-benzo[e]imidazo[1,2-c][1,3]oxazin-2-yl)phenyl)-1-methylcyclobutanol] | 8.5 | 2
8 | NC1(c2ccc(-c3nc4n(c3-c3ccccc3)COc3c(F)cccc3-4)cc2)CC(O)(C2CC2)C1 (stereo not drawn) [Example 10, trans-3-amino-1-cyclopropyl-3-(4-(7-fluoro-3-phenyl-5H-benzo[e]imidazo[1,2-c][1,3]oxazin-2-yl)phenyl)cyclobutanol] | 2.3 | 1.4
9 | C[C@]1(O)C[C@@](N)(c2ccc(-c3nc4n(c3-c3ccccc3)COc3ccccc3-4)cc2)C1 [Example 12, trans-3-amino-1-methyl-3-(4-(3-phenyl-5H-benzo[e]imidazo[1,2-c][1,3]oxazin-2-yl)phenyl)cyclobutanol] | 5.3 | 1.7
10 | NC1(c2ccc(-c3nc4n(c3-c3ccccc3)COc3ccccc3-4)cc2)CCC1 [Example 13, 1-(4-(3-phenyl-5H-benzo[e]imidazo[1,2-c][1,3]oxazin-2-yl)phenyl)cyclobutanamine] | 13 | 2.8
11 | NC1(c2ccc(-c3nc4n(c3-c3ccsc3)COc3ccccc3-4)cc2)CCC1 [Example 14, 1-(4-(3-(thiophen-3-yl)-5H-benzo[e]imidazo[1,2-c][1,3]oxazin-2-yl)phenyl)cyclobutanamine] | 27 | 5.4
12 | NC1(c2ccc(-c3nc4n(c3-c3ccncc3)COc3ccccc3-4)cc2)CCC1 [Example 15, 1-(4-(3-(pyridin-4-yl)-5H-benzo[e]imidazo[1,2-c][1,3]oxazin-2-yl)phenyl)cyclobutanamine] | 51 | 6.5
13 | COc1cccc2c1OCn1c-2nc(-c2ccc([C@]3(N)C[C@@](O)(C4CC4)C3)cc2)c1-c1ccccc1 [Example 19, trans-3-amino-1-cyclopropyl-3-(4-(7-methoxy-3-phenyl-5H-benzo[e]imidazo[1,2-c][1,3]oxazin-2-yl)phenyl)cyclobutanol] | 16 | 2
14 | COc1ccc2c(c1)-c1nc(-c3ccc(C4(N)CC(C)(O)C4)cc3)c(-c3ccccc3)n1CO2 (stereo not drawn) [Example 20, trans-3-amino-3-(4-(9-methoxy-3-phenyl-5H-benzo[e]imidazo[1,2-c][1,3]oxazin-2-yl)phenyl)-1-methylcyclobutanol] | 2.9 | 0.75
15 | COc1ccc2c(c1)OCn1c-2nc(-c2ccc(C3(N)CC(C)(O)C3)cc2)c1-c1ccccc1 (stereo not drawn) [Example 21, trans-3-amino-3-(4-(8-methoxy-3-phenyl-5H-benzo[e]imidazo[1,2-c][1,3]oxazin-2-yl)phenyl)-1-methylcyclobutanol] | 6 | 0.91
16 | NC1(c2ccc(-c3nc4n(c3-c3ccccc3)COc3cccc(Cl)c3-4)cc2)CC(O)(C2CC2)C1 (stereo not drawn) [Example 22, trans-3-amino-3-(4-(10-chloro-3-phenyl-5H-benzo[e]imidazo[1,2-c][1,3]oxazin-2-yl)phenyl)-1-cyclopropylcyclobutanol] | 8.2 | 0.3
17 | CCOc1cccc2c1-c1nc(-c3ccc(C4(N)CC(O)(C5CC5)C4)cc3)c(-c3ccccc3)n1CO2 (stereo not drawn) [Example 23, trans-3-amino-1-cyclopropyl-3-(4-(10-ethoxy-3-phenyl-5H-benzo[e]imidazo[1,2-c][1,3]oxazin-2-yl)phenyl)cyclobutanol] | 28 | 1.7
18 | CCOc1cccc2c1-c1nc(-c3ccc(C4(N)CC(C)(O)C4)cc3)c(-c3ccccc3)n1CO2 (stereo not drawn) [Example 24, trans-3-amino-3-(4-(10-ethoxy-3-phenyl-5H-benzo[e]imidazo[1,2-c][1,3]oxazin-2-yl)phenyl)-1-methylcyclobutanol] | 30 | 1.8
19 | COc1cc(OC)c2c(c1)OCn1c-2nc(-c2ccc(C3(N)CC(O)(C4CC4)C3)cc2)c1-c1ccccc1 (stereo not drawn) [Example 25, trans-3-amino-1-cyclopropyl-3-(4-(8,10-dimethoxy-3-phenyl-5H-benzo[e]imidazo[1,2-c][1,3]oxazin-2-yl)phenyl)cyclobutanol] | 12 | 0.27
20 | Cc1cccc2c1OCn1c-2nc(-c2ccc([C@]3(N)C[C@@](O)(C4CC4)C3)cc2)c1-c1ccccc1 [Example 26, trans-3-amino-1-cyclopropyl-3-(4-(7-methyl-3-phenyl-5H-benzo[e]imidazo[1,2-c][1,3]oxazin-2-yl)phenyl)cyclobutanol] | 26 | 1.5
21 | NC1(c2ccc(-c3nc4n(c3-c3ccccc3)COc3cccnc3-4)cc2)CCC1 [Example 29, 1-(4-(3-phenyl-5H-imidazo[1,2-c]pyrido[2,3-e][1,3]oxazin-2-yl)phenyl)cyclobutanamine] | 35 | 4
22 | NC1(c2ccc(-c3nc4n(c3-c3ccccc3)COc3ccncc3-4)cc2)CCC1 [Example 33, 1-(4-(3-phenyl-5H-imidazo[1,2-c]pyrido[3,4-e][1,3]oxazin-2-yl)phenyl)cyclobutanamine] | 14 | 1.7
23 | CC[C@]1(O)C[C@@](N)(c2ccc(-c3nc4n(c3-c3ccccc3)COc3ccncc3-4)cc2)C1 [Example 34, trans-3-amino-1-ethyl-3-(4-(3-phenyl-5H-imidazo[1,2-c]pyrido[3,4-e][1,3]oxazin-2-yl)phenyl)cyclobutanol] | 12 | 2.1
24 | NC1(c2ccc(-c3nc4n(c3-c3ccccc3)COc3cnccc3-4)cc2)CCC1 [Example 37, 1-(4-(3-phenyl-5H-imidazo[1,2-c]pyrido[4,3-e][1,3]oxazin-2-yl)phenyl)cyclobutanamine] | 5.5 | 1.1
25 | CC1(O)CC(N)(c2ccc(-c3nc4n(c3-c3ccccc3)COc3ncccc3-4)cc2)C1 (stereo not drawn) [Example 39, trans-3-amino-1-methyl-3-(4-(3-phenyl-5H-imidazo[1,2-c]pyrido[3,2-e][1,3]oxazin-2-yl)phenyl)cyclobutanol] | 1.4 | 0.97
26 | NC1(c2ccc(-c3nc4n(c3-c3ccccc3)COc3ncccc3-4)cc2)CCC1 [Example 40, 1-(4-(3-phenyl-5H-imidazo[1,2-c]pyrido[3,2-e][1,3]oxazin-2-yl)phenyl)cyclobutanamine] | 3.9 | 1.6
27 | CCC1(O)CC(N)(c2ccc(-c3nc4n(c3-c3ccccc3)COc3nccnc3-4)cc2)C1 (stereo not drawn) [Example 43, trans-3-amino-1-ethyl-3-(4-(3-phenyl-5H-imidazo[1,2-c]pyrazino[2,3-e][1,3]oxazin-2-yl)phenyl)cyclobutanol] | 8 | 7
